Legend:
Type in all cases: functional, Homo sapiens, Cancer cell lines
[1] = Antitumor activity against lung cancer cells in lung cancer patient assessed as survival rate relative to control
[2] = Antitumor activity against lung cancer cells in lung cancer patient assessed as remission rate relative to control
[3] = Antitumor activity against lung cancer cells in lung cancer patient assessed as tumor growth inhibition relative to control

CC(C)=CC[C@@H](O)C1=CC(=O)c2c(O)ccc(O)c2C1=O [SHIKONIN]
Survival [1]: 47% | Activity [2]: 37% | TGI [3]: 63%
